{
  "source": "paper PMC10976394",
  "about": "(ACS Omega, 2024)",
  "origin": "cited, not measured here",
  "conditions": "human; cited from earlier work",
  "data": [
    {"smiles": "CC[C@@H]1CN(C(=O)NCC(F)(F)F)C[C@@H]1c1cnc2cnc3[nH]ccc3n12", "note": "[upadacitinib]", "values": [
      {"measurement": "clearance behavior under the arthritic condition", "value": "reduced the clearance behavior"}
    ]}
  ]
}
